Assay results as given in patent publication US20120077794A1, “BIS-PYRIDYLPYRIDONES AS MELANIN-CONCENTRATING HORMONE RECEPTOR 1 ANTAGONISTS” (GLAXSMITHKLINE LLC, priority 2009, published 2012).
Where two headings read alike, the source gives them in different places.

Biological target: T1, hMCHR1 (Homo sapiens, UniProt Q99705)
T1 construct: expressed in transfected cells; host or cells: HEK293
Assay: MCHR1 pIC50 Determination FLIPR Assay
Type: cell-based
Experimental: MCHR1 pIC50 Determination FLIPR™ Assay: HEK293 cells stably transfected with hMCHR1 were propagated as adherent cultures at 37° C. in a humidified incubator. Cells were split 1:8 at 90% confluency two times per week. New cell stocks were recovered from storage every two months. Cells were plated in black 384-well plates (Greiner) 24 hours prior to assay at 15,000 cells/well in 50 μL DMEM/F12, 10% FBS, 2 mM I-glutamine. Compounds to be profiled were prepared by making a stock solution at 3×10^−3M in 100% DMSO. The stock solutions were serially diluted 1:4 in 100% DMSO using JANUS (PerkinElmer) liquid handling instrument to allow for an 11 point curve in singlicate. At the time of the assay, the media was removed from the cell plate by aspiration, followed by the addition of 20 μL of loading buffer (Calcium 4 Kit, […]). Following 50 min incubation at 37° C., 10 μL of compound was added to the plates via the FLIPR™ instrument ([…]). The plates were incubated at room temperature for 15 minutes along with an MCH peptide agonist challenge plate. On the FLIPR™, a basal response was collected over 10 seconds followed by the addition of 10 μL of MCH challenge concentration at 4XEC50. Data was collected over 4 minutes and subjected to a nonlinear regression analysis curve fitting program to generate pIC50s.

[1] = HEK293 cells stably transfected with hMCHR1, MCH challenge at 4XEC50, at least one experimental run, read-out: IC50 in the FLIPR assay

T1 sequence (Q99705 whole entry): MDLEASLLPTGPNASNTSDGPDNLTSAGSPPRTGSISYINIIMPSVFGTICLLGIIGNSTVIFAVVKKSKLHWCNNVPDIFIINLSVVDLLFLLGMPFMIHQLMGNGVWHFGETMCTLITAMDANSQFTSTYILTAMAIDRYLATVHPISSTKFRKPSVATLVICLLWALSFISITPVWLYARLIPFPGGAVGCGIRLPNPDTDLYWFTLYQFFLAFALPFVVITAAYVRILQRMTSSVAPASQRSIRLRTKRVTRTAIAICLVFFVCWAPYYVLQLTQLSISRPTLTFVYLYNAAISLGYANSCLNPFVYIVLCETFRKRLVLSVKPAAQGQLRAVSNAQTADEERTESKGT

IC50 (quantity and assay not stated, read-out: unlabelled value in the heading of Example 2) | IC50 [1] | Structure (SMILES)
88 nM |  | O=c1cc(OCc2ccc(Cl)cn2)ccn1-c1ccc(N2CCNCC2)nc1 [Example 2, 4-{[(5-chloro-2-pyridinyl)methyl]oxy}-6′-(piperazin-1-yl)-2H-1,3′-bipyridin-2-one]
 | 48 nM | O=c1cc(OCc2ccc(Cl)cn2)ccn1-c1ccc(N2CCC[C@@H]2CO)nc1 [Example 4, 4-{[(5-chloro-2-pyridinyl)methyl]oxy}-6′-{[(2R)-hydroxymethyl]pyrrolidin-1-yl}-2H-1,3′-bipyridin-2-one]
 | 52 nM | O=c1cc(OCc2ccc(Cl)cn2)ccn1-c1ccc(N2CCCNCC2)nc1 [Example 13]
 | 53 nM | CC(C)[C@H]1CN(c2ccc(-n3ccc(OCc4ccc(Cl)cn4)cc3=O)cn2)CCN1C [Example 19]
